Source: publication PMC3160846 (PLoS ONE, 2011)

Key:
Format in all cases: cell-based, Human
NTU0.017 cells = assay: Clonogenic assay, NTU0.017
Procedure: (§1) Human lung adenocarcinoma A549 cells and NTUB1 bladder cancer cells were maintained in RPMI supplied with 10% fetal bovine serum. […] KB-derived MRP1-expressing cell line, KB-7D, was maintained in growth medium supplemented with 7 µM VP-16.
(§2) Two hundred cells in logarithmic growth phase were seeded in a 6-well plate. The cells were exposed to various concentrations of the test drugs for a three-generation period. At the end of the incubation period, cells were fixed and stained with 50% ethanol containing 0.5% methylene blue for 30 min. The plates were washed five times with water and allowed to air-dry. Colonies were countered manually. […] Each value represents the average of at least three independent experiments run in triplicates.

MV4-11 cells = assay: Clonogenic assay, MV4-11
Procedure: as §1, §2

NTUB1 cells = assay: Clonogenic assay, NTUB1
Procedure: as §1, §2

OECM-1 cells = assay: Clonogenic assay, OECM-1
Procedure: as §1, §2

IM9 cells = assay: Clonogenic assay, IM9
Procedure: as §1, §2

HT29 cells = assay: Clonogenic assay, HT29
Procedure: as §1, §2

KB-VIN10 cells = assay: Clonogenic assay, KB-VIN10
Procedure: as §1, §2

KB cells = assay: Clonogenic assay, KB
Procedure: as §1, §2

KB-S15 cells = assay: Clonogenic assay, KB-S15
Procedure: as §1, §2

HONE-1 cells = assay: Clonogenic assay, HONE-1
Procedure: as §1, §2

A549 cells = assay: Clonogenic assay, A549
Procedure: as §1, §2

IC50 (MV4-11 cells; Homo sapiens, MV4-11, leukemia, p53 mutant, MDR1 negative, read-out: IC50, anti-proliferative activity): 86 ± 11 nM
Fold difference as compare to the IC50 of BPR1K653 (MV4-11 cells; MV4-11): 17 fold
Fold difference as compare to the IC50 of BPR1K653 (NTUB1 cells; NTUB1): 51 fold
Fold difference as compare to the IC50 of BPR1K653 (OECM-1 cells; OECM-1): 5 fold
Fold difference as compare to the IC50 of BPR1K653 (IM9 cells; IM9): 113 fold
Fold difference as compare to the IC50 of BPR1K653 (HT29 cells; HT29): 4 fold
IC50 (HT29 cells; Homo sapiens, HT-29, HT29, colon, p53 mutant, MDR1 negative, read-out: IC50, anti-proliferative activity): 48 ± 8 nM
IC50 (KB-VIN10 cells; Homo sapiens, KB-VIN10, vincristine resistant, MDR1 ↑, read-out: IC50, anti-proliferative activity): > 25000 nM
Fold difference as compare to the IC50 of BPR1K653 (KB cells): 33 fold
IC50 (KB-S15 cells; Homo sapiens, KB-S15, paclitaxol resistant, MDR1 ↑, read-out: IC50, anti-proliferative activity): 4700 nM
Fold difference as compare to the IC50 of BPR1K653 (HONE-1 cells; HONE-1): 5 fold
Fold difference as compare to the IC50 of BPR1K653 (A549 cells; A549): 6 fold
IC50 (A549 cells; Homo sapiens, A549, lung, p53 wild-type, MDR1 negative, read-out: IC50, anti-proliferative activity): 56 ± 8 nM
Compound: CO[C@@H](C(=O)N1Cc2n[nH]c(NC(=O)c3ccc(N4CCN(C)CC4)cc3)c2C1)c1ccccc1 [PHA-739358]
IC50 (NTU0.017 cells; Homo sapiens, NTU0.017, paclitaxol resistant, MDR1 ↑, read-out: IC50, anti-proliferative activity): > 50000 nM
Fold difference as compare to the IC50 in the respective parental cells (NTU0.017 cells; NTU0.017 vs NTUB1): > 123 fold
IC50 (NTUB1 cells; Homo sapiens, NTUB1, bladder, MDR1 negative (parental), read-out: IC50, anti-proliferative activity): 405 ± 134 nM
IC50 (OECM-1 cells; Homo sapiens, OECM1, OECM-1, oral, p53 mutant, MDR1 negative, read-out: IC50, anti-proliferative activity): 642 ± 68 nM
IC50 (IM9 cells; Homo sapiens, IM9, lymphoma, p53 wild-type, MDR1 negative, read-out: IC50, anti-proliferative activity): 450 ± 12 nM
Fold difference as compare to the IC50 in the respective parental cells (KB-VIN10 cells; KB-VIN10 vs KB): > 63 fold
IC50 (KB cells; Homo sapiens, cervical, p53 wild-type, MDR1 negative (parental), read-out: IC50, anti-proliferative activity): 400 ± 100 nM
Fold difference as compare to the IC50 in the respective parental cells (KB-S15 cells; KB-S15 vs KB): 12 fold
IC50 (HONE-1 cells; Homo sapiens, HONE1, HONE-1, oral, p53 mutant, MDR1 negative, read-out: IC50, anti-proliferative activity): 59 ± 16 nM
